Test results reported in US10751329B2, “Treatment of CDKL5 disorders with GSK3β inhibitor tideglusib” (priority 2016, dated 2020).

Legend:
CDKL5 KO mice [1] = details: cited from earlier work
Cdkl5^−/Y mice [2] = experiment: Passive avoidance (PA) test; format: in vivo; details: at the end of treatment
Procedure: Starting from postnatal day 25 (P25), Cdkl5^+/Y WT and Cdkl5^−/Y KO male mice were treated with vehicle (corn oil; Sigma-Aldrich) or NP-12 (20 mg/kg; Sigma-Aldrich), administered by subcutaneous injection every other day for 20 days. […] For the PA test we used a tilting-floor box (47×18×26 cm) divided into two compartments by a sliding door and a control unit incorporating a shocker (Ugo Basile, Italy). This classic instrument for Pavlovian conditioning exploits the tendency in mice to escape from an illuminated area into a dark one (step-through method). On the first day mice were individually placed into the illuminated compartment. After 60 seconds of habituation period, the connecting door between the chambers opened. In general, mice step quickly through the gate and enter the dark compartment because mice prefer to be in the dark. Upon entering the dark compartment, mice received a brief foot shock (0.7 mA for 3 seconds) and were removed from the chamber after 15 seconds of latency. If the mouse remained in the light compartment for the duration of the trial (358 s), the door closed and the mouse was removed from the light compartment. […] After a 24 hour retention period, mice were placed back into the light compartment and the time it took them to re-enter the dark compartment (latency) was measured up to 358 seconds.

GSK3β-dependent targets = experiment: Western blot of GSK3β-dependent targets (β-catenin, P-CRMP2 Thr-514, P-CREB Ser-133) in hippocampus, juvenile and adult mice; format: in vivo; details: juvenile CDKL5 KO mice (treated from P25, P45)
Text: Data are expressed as percentage of vehicle treated Cdkl5+/Y mice of the same age. Values are represented as means±SE. *p<0.05, **p<0.01, ***p<0.001 as compared to the vehicle-treated Cdkl5 +/Y condition; #p<0.05; ##p<0.01, ###p<0.001 as compared to the vehicle-treated Cdkl5 −/Y condition (Duncan's test after ANOVA).

Cdkl5^−/Y mice [3] = experiment: Dendritic development of granule cells (DCX and Golgi staining); format: in vivo; details: 20 mg/kg s.c. every other day from P25, P45
Procedure: After weaning, mice were housed three to five per cage and were on a 12-hour (h) light/dark cycle in a temperature-controlled environment with food and water provided ad libitum. […] Animals were sacrificed 4 hours after the last injection on P45.

CDKL5 KO mice [4] = experiment: Hippocampus-dependent learning and memory (Morris water maze, passive avoidance), juvenile and adult mice; format: in vivo; details: juvenile CDKL5 KO mice (treated from P25, P45)
Procedure: Starting from postnatal day 25 (P25) for juvenile mice (A) or postnatal day 90 (P90) for adult mice (B), Cdkl5^+/Y and Cdkl5^−/Y male mice were treated with vehicle or NP-12, administered by subcutaneous injection every other day for 20 days. Animals were sacrificed after the last injection (on P45 and P110 for juvenile and adult mice, respectively) or were behaviorally tested. […] Spatial learning and memory (probe test) assessed with the Morris water maze in vehicle treated and NP-12 treated Cdkl5+/Y and −/Y male mice aged P45 (A) and aged P110 (B). Passive avoidance test (PA) on vehicle treated and NP-12 treated Cdkl5+/Y and −/Y male mice aged P45 (C). Graphs show the latency time to enter the dark compartment on the first day and on the second day of the behavioral procedure. Values are represented as means±SE. *p<0.05, **p<0.01, ***p<0.001 as compared to the vehicle-treated Cdkl5+/Y condition; #p<0.05; ##p<0.01, ###p<0.001 as compared to the vehicle-treated Cdkl5−/Y condition (Duncan's test after ANOVA).

Cdkl5^−/Y mice [5] = experiment: Spine density and morphology of Golgi-stained granule cells; format: in vivo; details: 20 mg/kg s.c. every other day from P25, P45
Procedure: (B) Images of Golgi-stained dendritic branches of granule cells of untreated and treated Cdkl5^+/Y and Cdkl5^−/Y male mice. […] The day of birth was designed as postnatal day (P) zero (P0) and animals with 24 hours of age were considered as one-day-old animals (P1). After weaning, mice were housed three to five per cage and were on a 12-hour (h) light/dark cycle in a temperature-controlled environment with food and water provided ad libitum. […] Animals were sacrificed 4 hours after the last injection on P45. Brains were Golgi-stained using the FD Rapid Golgi Stain™ Kit (FD NeuroTechnologies, Inc., Columbia, Md., USA). […] In Golgi-stained sections, spines of granule cells were counted using a 100× oil immersion objective lens. Dendritic spine density was measured by manually counting the number of dendritic spines on dendritic segments in the inner and outer half of the molecular layer and expressed as the number of dendritic spines per 20 μm dendritic length. The dendritic spine length was measured by manually drawing a vertical line from the tip of the protrusion to the point where it met the dendritic shaft. The number of spine clusters was counted manually on dendritic segments in the inner and outer half of the molecular layer and expressed as number of spine clusters per 20 μm dendritic length. […] The number of spines belonging to the different group was counted.

[6] = test system: hippocampal neurons from Cdkl5 KO mice; experiment: Polarization and morphological analysis of MAP2-stained hippocampal neurons; format: cell-based; details: Cdkl5 KO hippocampal cultures; 1 μM, DIV10
Text: (C-D) Graphs showing the percentage of polarized neurons (C) and the quantification of the length of the longest axon and dendrite (D) in treated and untreated in hippocampal cultures as in A. (E) Representative images of MAP2-stained hippocampal neurons as in A. Data are expressed as fold difference in comparison to hippocampal neurons from untreated Cdkl5^+/Y mice. Values are represented as means±SD. *p<0.05 as compared to the untreated Cdkl5^+/Y condition; #p<0.05; ##p<0.01 as compared to the untreated Cdkl5^−/Y samples (Duncan's test after ANOVA).
Hippocampal neurons were prepared from postnatal day 1 (P1) Cdkl5^−/Y and Cdkl5^X/Y male mice. […]
To define the degree of polarization of neuronal dendrites, we followed the method described by Horton et al. (FIG. 3) (Horton et al. 2006. Brain Cell. Biol. 35:29-38). Briefly, the measured lengths of dendrites (Lm) in each neuron (including the primary dendrite/axon with all its branches) were ranked highest to lowest. […]
The morphological analysis of hippocampal neurons was focused on two parameters: length of the longest dendrite (D1) and total dendritic length. To achieve this aim, dendritic length of MAP2-positive neurons were measured and quantified by tracing along each neuronal projection using the image analysis system Image Pro Plus (Media Cybernetics, Silver Spring, Md. 20910, USA). […]

Cdkl5^−/Y mice [7] = experiment: Neuronal survival in the dentate gyrus (cleaved caspase-3, DCX immunohistochemistry); format: in vivo; details: 20 mg/kg s.c. every other day from P25, P45
Text: (B,C) Examples of sections processed for DCX immunostaining from the dentate gyrus (DG) of untreated and treated Cdkl5^+/Y and Cdkl5^−/Y male mice. (C). […] Scale bar=30 μm; type 2b/3 cells and immature neurons were counted separately. (B) Number of DCX-positive type 2b/3 precursor cells and DCX-positive immature neurons in the DG of mice of untreated (+/Y n=3, −/Y n=3) and treated (+/Y n=3, −/Y n=3) Cdkl5 mice. Values in A represent totals for one DG (mean±SD), data in B are expressed as number of cells/100 μm. *p<0.05; **p<0.01 as compared to the untreated Cdkl5^+/Y condition; ##p<0.01; ###p<0.001 as compared to the untreated Cdkl5^−/Y samples (Duncan's test after ANOVA). Abbreviations: GR, granular layer; SGZ, subgranular zone.
The day of birth was designed as postnatal day (P) zero (P0) and animals with 24 hours of age were considered as one-day-old animals (P1). After weaning, mice were housed three to five per cage and were on a 12-hour (h) light/dark cycle in a temperature-controlled environment with food and water provided ad libitum. […]
One out of 6 sections from the hippocampal formation were used for immunohistochemistry for cleaved caspase-3 (1:200, anti-cleaved caspase-3 rabbit polyclonal Ab, Cell Signaling Technology), doublecortin (1:100, anti-DCX goat polyclonal Ab, Santa Cruz Biotechnology), synaptophysin (1:1000, anti-SYN (SY38) mouse monoclonal Ab, MAB 5258, Merck Millipore) and PSD-95 (1:1000, anti-PSD-95 rabbit polyclonal Ab, Abcam) or double fluorescence immunohistochemistry for synaptophysin, and PSD-95. […]
The total number of positive cells in the DG (cleaved caspase-3, DCX) was estimated by multiplying the total number counted in the series of sampled sections by the inverse of the section sampling fraction (ssf=⅙). The total number of cells of each phenotype was estimated by multiplying the number counted in the series of sections by the inverse of the section sampling fraction (ssf=⅙).

CDKL5 KO mice [8] = experiment: Neuronal survival and maturation (DCX-positive neurons, dendritic length and branches), juvenile and adult mice; format: in vivo; details: juvenile CDKL5 KO mice (treated from P25, P45)
Procedure: (§1) FIGS. 22A-22B show an experimental protocol for evaluating the effect of NP-12 in juvenile and adult mice. Starting from postnatal day 25 (P25) for juvenile mice (A) or postnatal day 90 (P90) for adult mice (B), Cdkl5^+/Y and Cdkl5^−/Y male mice were treated with vehicle or NP-12, administered by subcutaneous injection every other day for 20 days. Animals were sacrificed after the last injection (on P45 and P110 for juvenile and adult mice, respectively) or were behaviorally tested. Abbreviations: +/Y: wildtype male mice; −/Y: Cdkl5 KO male mice; P, postnatal day.
FIGS. 25A-25B show the quantification of the number of DCX-positive postmitotic neurons in the dentate gyrus of vehicle treated and NP-12 treated Cdkl5+/Y and −/Y male mice aged P45 (A) and aged P110 (B). Data are expressed as number of cells/100 μm. Values are represented as means±SE. *p<0.05, **p<0.01, ***p<0.001 as compared to the vehicle-treated Cdkl5+/Y condition; #p<0.05; ##p<0.01, ###p<0.001 as compared to the vehicle-treated Cdkl5 −/Y condition (Duncan's test after ANOVA).
FIGS. 26A-26B show the mean total dendritic length and mean number of dendritic branches of newborn granule cells of vehicle treated and NP-12 treated Cdkl5+/Y and −/Y male mice aged P45 (A) and aged P110 (B).

GSK3β = experiment: Western blot of P-GSK3β-Ser9, GSK3β and β-catenin in hippocampal extracts of treated mice; details: 20 mg/kg s.c. every other day from P25, P45
Cdkl5^−/Y mice [9] = experiment: Granule cell density, number and layer volume in the dentate gyrus; format: in vivo; details: 20 mg/kg s.c. every other day from P25, P45
[10] = test system: Cdkl5 KO hippocampal neurons; experiment: Synaptophysin (SYN) puncta in hippocampal neuronal cultures; format: cell-based, mice; details: 1 μM every other day, DIV7 to DIV12
Procedure: Immunostaining for cultured hippocampal neurons were performed with the following procedure. Cells were fixed in 4% PFA+4% sucrose in PBS for 20 min and washed five times in PBS. After permeabilization with PBST cells were incubated overnight at 4° C. o/n with the following antibodies: rabbit polyclonal anti-MAP2 (1:100, Millipore) and SYN (SY38) antibody (1:1000, MAB 5258, Merck Millipore). Sections were then incubated for 2 h at room temperature with a FITC-conjugated goat anti-mouse IgG (1:100; Sigma-Aldrich) and a Cy3-conjugated anti-rabbit IgG (1:100, Jackson Immunoresearch).
To develop the cultures the hippocampal neuronal cells were harvested on postnatal day 1, which was considered division 0 (DIV 0) and cultured in vitro for the remainder of the experiment. […] Results are presented as mean±SD. Data were analyzed with Duncan's test after ANOVA. A probability level of p<0.05 was considered to be statistically significant. *P, 0.05, **P<0.01, ***p<0.001 as compared to the untreated wild-type (Cdkl5+/Y) condition; #p<0.05, ##p<0.01 ###p<0.001 as compared to the untreated Cdkl5 KO (−/Y) samples.

CDKL5 KO mice [11] = experiment: Synapse development (SYN and PSD-95 puncta in the DG), juvenile mice; format: in vivo; details: juvenile CDKL5 KO mice (treated from P25, P45)
Procedure: as §1
Values are represented as means±SE. *p<0.05, **p<0.01, ***p<0.001 as compared to the vehicle-treated Cdkl5+/Y condition; #p<0.05; ##p<0.01, ###p<0.001 as compared to the vehicle-treated Cdkl5 −/Y condition (Duncan's test after ANOVA).

Cdkl5^−/Y mice [12] = experiment: Hippocampal connectivity: SYN and PSD-95 immunoreactivity and puncta in the molecular layer of the DG; format: in vivo; details: 20 mg/kg s.c. every other day from P25, P45
Procedure: After weaning, mice were housed three to five per cage and were on a 12-hour (h) light/dark cycle in a temperature-controlled environment with food and water provided ad libitum. Starting from postnatal day 25 (P25), Cdkl5^+/Y WT and Cdkl5^−/Y KO male mice were treated with vehicle (corn oil; Sigma-Aldrich) or NP-12 (20 mg/kg; Sigma-Aldrich), administered by subcutaneous injection every other day for 20 days. Animals were sacrificed 4 hours after the last injection on P45.

[13] = test system: GSK3β Ser9-phosphorylation in hippocampal neurons from Cdkl5 KO mice; experiment: Western blot of P-GSK3β-Ser9 in hippocampal neuronal cultures (DIV10); format: cell-based; details: chronic treatment 1 μm from DIV2, DIV10
Procedure: Hippocampal cultures were treated with 1 μm NP-12 starting from DIV2. […] Values are represented as means±SD. *p<0.05 as compared to the untreated Cdkl5^+/Y condition; #p<0.05; ##p<0.01 as compared to the untreated Cdkl5^−/Y samples (Duncan's test after ANOVA).
Hippocampal neurons were prepared from postnatal day 1 (P1) Cdkl5^−/Y and Cdkl5^X/Y male mice. Briefly, hippocampi were dissected from mouse brains under a dissection microscope and treated with trypsin (Sigma Aldrich) for 15 min at 37° C. and DNase (Sigma Aldrich) for 2 min at room temperature before triturating mechanically with fire-polished glass pipette to obtain a single-cell suspension. Approximately 1.2×10^5 cells were plated on coverslips coated with poly-1-lysine in 12-well plates and cultures in Neurobasal medium (Invitrogen) supplemented with B27 (Invitrogen) and glutamine (Invitrogen). Cells were maintained in vitro at 37° C. in a 5% CO2-humified incubator and fixed for immunostaining or Western Blot analysis at 10 days after plating (DIV10). 1 μM NP-12 (Sigma) was administrated on alternate days.
For Western Blot analysis hippocampal neurons at DIV10 were lysed in ice-cold RIPA lysis buffer (50 mM Tris-HCl pH 7.4, 150 mM NaCl, 1% Triton-X100, 0.5% sodium deoxycholate, 0.1% SDS) supplemented with 1 mM PMSF and 1% proteases and phosphatases inhibitor cocktail (Sigma). […]

## Cn1cc(C2=C(c3ccc(Cl)cc3Cl)C(=O)NC2=O)c2ccccc21 [SB216763]
CDKL5 KO mice [1]
  hippocampal development: restore hippocampal development by restoring dendritic development, spine morphology and distribution, survival of newborn granule cells, and connectivity

## O=c1sn(-c2cccc3ccccc23)c(=O)n1Cc1ccccc1 [NP-12, tideglusib]
Cdkl5^−/Y mice [2]; Cdkl5^−/Y mice, 24 hours after shock
  latency time to enter the dark compartment, second day (test): underwent an increase and there was no significant difference in comparison to untreated Cdkl5^+/Y mice
Cdkl5^−/Y mice [2]; all groups
  latency time to enter the dark compartment, first day: all groups showed similar step-through latencies
GSK3β-dependent targets
  GSK3β-dependent targets (β-catenin, P-CRMP2 Thr-514, P-CREB Ser-133): restores GSK3β-dependent targets in juvenile
Cdkl5^−/Y mice [3]
  dendritic length of newborn (DCX-positive) granule cells: increase in both parameters that became similar or even greater than those of untreated Cdkl5^+/Y mice
  dendritic length of older Golgi-stained granule cells: completely rescued
  number of dendritic branches of newborn (DCX-positive) granule cells: increase in both parameters that became similar or even greater than those of untreated Cdkl5^+/Y mice
  number of dendritic segments of older Golgi-stained granule cells: completely rescued
CDKL5 KO mice [4]
  hippocampus-dependent behavior defects (learning and memory): corrects hippocampus-dependent behavior defects in juvenile
Cdkl5^−/Y mice [5]
  dendritic spine density of granule cells: no effect on spine density
Cdkl5^−/Y mice [5]; Cdkl5 KO mice
  spine shape morphology (percentage of immature and mature spines): completely restored
[6]
  axon and dendrite maturation (length of the longest axon and dendrite): had positive effects on correct axon and dendrite maturation
  percentage of polarized neurons: efficiently ameliorated the percentage of polarized neurons
Cdkl5^−/Y mice [7]; Cdkl5 KO male mice
  cell death: cleaved caspase-3 positive cells in the dentate gyrus: completely restored
Cdkl5^−/Y mice [7]; Cdkl5^−/Y mice
  survival rate of the postmitotic granule cells: restores the survival rate of the postmitotic granule cells
Cdkl5^−/Y mice [7]; treated mice vs untreated Cdkl5^+/Y
  number of DCX-positive immature neurons in the dentate gyrus: underwent an increase in the number of DCX-positive neurons, that became similar to that of untreated Cdkl5^+/Y littermates
CDKL5 KO mice [8]
  neuronal survival and maturation: restores neuronal survival and maturation in juvenile
GSK3β
  total GSK3β levels in hippocampus: no effect
GSK3β; Cdkl5^−/Y male mice
  Ser9-phosphorylated GSK3β levels in hippocampus: increased Ser9-phosphorylated GSK3β levels in Cdkl5^−/Y mice that became even higher to those of the untreated Cdkl5^+/Y counterparts
  β-catenin levels in hippocampus: complete recovery of β-catenin levels
Cdkl5^−/Y mice [9]
  granule cell density in the dentate gyrus: fully restored
  total granule cell number in the dentate gyrus: fully restored
  volume of the granule cell layer: without affecting the volume of the granule cell layer
[10]
  number of synaptophysin (SYN) puncta: completely restore
CDKL5 KO mice [11]
  synapse development (SYN and PSD-95 puncta): restores synapse development in juvenile CDKL5 KO mice
Cdkl5^−/Y mice [12]
  density of PSD-95 puncta in the molecular layer of the DG: completely restored
  density of SYN puncta in the molecular layer of the DG: completely restored
  optical density of PSD-95 immunoreactivity in the molecular layer of the DG: fully rescued
  optical density of SYN immunoreactivity in the molecular layer of the DG: fully rescued
[13]
  GSK3β Ser9-phosphorylation: completely restores GSK3β Ser9-phosphorylation
